Test results reported in the RepoRT retention time repository.

Assay: Agilent ZORBAX 300 SB-C18, 150 × 1 mm, 3.5 µm; A: water + 0.01% heptafluorobutyric acid; B: acetonitrile + 0.01% heptafluorobutyric acid; gradient (min/%B) 0/0 100/90
Details: stereoisomer not certain

Compared with `CCc1ccc(C=NNC(=O)C[n+]2ccccc2)cc1`, `COc1ccc2ccccc2c1C=NNC(=O)C(c1ccccc1)c1ccccc1` is 1.8-fold higher in LC retention time: 9.72 min for the first, 17.5 min for the second.

`S=C(Nc1cccnc1)N1CCc2ccccc21` and `O=C(O)C1Cc2ccccc2CN1C(=O)c1ccccc1` (stereo not given) are within 1.5-fold of each other in LC retention time: 9.72 min for the first, 11.2 min for the second.

`Cc1cncc(C)c1` and `Cc1nccnc1C` are within 1.5-fold of each other in LC retention time: 6.88 min for the first, 7.59 min for the second.

`CN(C)C(=O)c1ccc(N=CNc2ccc(C(=O)N(C)C)cc2)cc1` and `CN(C)c1ccc(C(O)c2ccc(N(C)C)cc2)cc1` are within 1.5-fold of each other in LC retention time: 9.51 min for the first, 9.42 min for the second.

`CC(=O)N(C)C1=C(N2CCCC2)C(=O)c2ccccc2C1=O` and `O=C1C=CC(=O)N1c1ccc(N2CCCCC2)cc1` are within 1.5-fold of each other in LC retention time: 11.2 min for the first, 9.22 min for the second.

Going from `Cc1cccc(-c2ccnc(=S)[nH]2)c1` to `Cc1ccc2cc(-c3cccs3)[nH]c2c1`, the LC retention time rises from 9.59 min to 16.4 min (1.7-fold).

Compared with `Nc1cccc(C(=O)O)c1N`, `Cc1c(N)cccc1N` is 1.6-fold lower in LC retention time: 10.6 min for the first, 6.51 min for the second.

Compared with `O=C(O)c1n[nH]c(=O)[nH]1`, `CCc1ccccc1NCC(=O)O` is 8.9-fold higher in LC retention time: 1.25 min for the first, 11.1 min for the second.

`CCCN1CCCCC1C(=O)Nc1c(C)cccc1C` (stereo not given) and `OCc1ccccc1CN1CCCC1` are within 1.5-fold of each other in LC retention time: 9.88 min for the first, 7.7 min for the second.

`COc1cc(NC(C)=O)cc(OC)c1OC` and `COc1cc(C2ON=C(CN3CCOCC3)C2C)c(OC)c2c1OCO2` (stereo not given) are within 1.5-fold of each other in LC retention time: 8.42 min for the first, 9.6 min for the second.

`CN(C)c1ccncc1` and `Nc1cccnc1` are within 1.5-fold of each other in LC retention time: 7.29 min for the first, 5.54 min for the second.

`CCOC(=O)c1ccc2c(c1)C(=O)N(c1cccc3ccccc13)C2=O` and `Nc1ccc2c(c1)C(=O)N(c1ccc3ccccc3c1)C2=O` are within 1.5-fold of each other in LC retention time: 16.2 min for the first, 13.6 min for the second.

Compared with `Cc1ccc(-n2ccnc2)cc1`, `Cc1ccc(NC(=O)COc2ccc(-c3ccccc3)cc2)cc1` is 2-fold higher in LC retention time: 8.52 min for the first, 17.1 min for the second.

Compared with `OCCNCc1ccccc1`, `CCOC(=O)c1[nH]c(C)c(C(=O)OCc2ccccc2)c1C` is 2-fold higher in LC retention time: 7.72 min for the first, 15.8 min for the second.

`Cc1ccoc1CC[N+](C)(C)C` and `CN(C)c1ccc(CNC2CC(C)(C)NC(C)(C)C2)cc1` are within 1.5-fold of each other in LC retention time: 7.96 min for the first, 8.12 min for the second.

`CC(=O)NC1CCN(C)C2CCCCC12` (stereo not given) and `CC1(C)CC(NCC(=O)OC2CCCCC2)CC(C)(C)N1` are within 1.5-fold of each other in LC retention time: 7.11 min for the first, 8.55 min for the second.

`CC1Cc2ccccc2N1` (stereo not given) and `Cc1cc(C)nc(NC(N)=NCc2cccnc2)n1` are within 1.5-fold of each other in LC retention time: 7.66 min for the first, 7.87 min for the second.

In the case of `CC(C)NCC(O)COc1ccc(COCCOC(C)C)cc1` (stereo not given), the LC retention time was 10 min.
